Here are results for three compounds from ChEMBL document CHEMBL2073837, “Inhibitory effects of pomelo on the metabolism of tacrolimus and the activities of CYP3A4 and P-glycoprotein” (Drug Metab Dispos, 2004).

Data set [1] has as its target T1, ATP-dependent translocase ABCB1 (Homo sapiens, UniProt P08183). In words: TP_TRANSPORTER: transepithelial transport of digoxin (apical to basal) (Digoxin: 20-30uM) in MDR1-expressing LLC-GA5-COL150 cell. Format: functional, cell-based. Conditions: pig.
Data set [2] deals with T1, ATP-dependent translocase ABCB1. The data set is described as follows: TP_TRANSPORTER: transepithelial transport of tacrolimus (apical to basal) (Tacrolimus: 1.38-1.48uM) in MDR1-expressing LLC-GA5-COL150 cell. Format: functional, cell-based. The settings on record: pig.

T1 sequence (P08183 whole entry): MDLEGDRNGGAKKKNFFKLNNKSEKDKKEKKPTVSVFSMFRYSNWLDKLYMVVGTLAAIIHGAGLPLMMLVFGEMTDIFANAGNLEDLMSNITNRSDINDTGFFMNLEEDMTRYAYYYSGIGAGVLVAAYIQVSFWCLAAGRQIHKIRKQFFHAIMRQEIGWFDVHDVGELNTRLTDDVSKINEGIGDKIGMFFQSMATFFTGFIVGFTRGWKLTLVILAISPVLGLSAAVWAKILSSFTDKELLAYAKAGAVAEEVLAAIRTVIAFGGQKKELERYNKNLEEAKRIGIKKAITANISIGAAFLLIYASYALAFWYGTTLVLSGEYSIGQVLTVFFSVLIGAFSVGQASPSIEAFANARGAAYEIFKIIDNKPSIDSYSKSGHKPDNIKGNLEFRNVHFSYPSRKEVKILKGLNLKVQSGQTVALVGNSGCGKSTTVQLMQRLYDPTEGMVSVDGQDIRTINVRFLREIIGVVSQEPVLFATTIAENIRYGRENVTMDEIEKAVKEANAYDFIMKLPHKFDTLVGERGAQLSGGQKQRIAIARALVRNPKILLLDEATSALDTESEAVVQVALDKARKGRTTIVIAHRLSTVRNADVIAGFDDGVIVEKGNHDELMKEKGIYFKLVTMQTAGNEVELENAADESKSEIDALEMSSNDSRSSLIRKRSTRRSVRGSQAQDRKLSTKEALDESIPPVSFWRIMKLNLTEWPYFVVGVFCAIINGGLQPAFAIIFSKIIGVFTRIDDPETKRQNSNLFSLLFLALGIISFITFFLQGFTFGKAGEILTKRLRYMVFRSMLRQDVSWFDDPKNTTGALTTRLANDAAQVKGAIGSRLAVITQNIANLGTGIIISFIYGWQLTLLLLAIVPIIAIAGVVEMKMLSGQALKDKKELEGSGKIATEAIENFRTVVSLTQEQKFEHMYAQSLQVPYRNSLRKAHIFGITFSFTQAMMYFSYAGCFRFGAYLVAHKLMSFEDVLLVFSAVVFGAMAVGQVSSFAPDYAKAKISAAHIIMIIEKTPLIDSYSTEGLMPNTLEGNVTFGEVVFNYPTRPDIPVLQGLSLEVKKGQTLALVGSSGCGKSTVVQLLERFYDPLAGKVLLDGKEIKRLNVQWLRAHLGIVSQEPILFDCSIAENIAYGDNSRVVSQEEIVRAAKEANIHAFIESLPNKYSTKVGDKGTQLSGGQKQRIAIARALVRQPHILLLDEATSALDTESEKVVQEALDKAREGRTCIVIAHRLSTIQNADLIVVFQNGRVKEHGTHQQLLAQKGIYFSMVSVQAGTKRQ

In the case of BANPEIYU, the Activity entry in data set [1] and in data set [2] was “inhibitor [+]” each time.

Take GRAPEFRUIT JUICE: the Activity entry in data set [1] and in data set [2] was “inhibitor [+]” throughout.

With `CC[C@H]1OC(=O)[C@H](C)[C@@H](O[C@H]2C[C@@](C)(OC)[C@@H](O)[C@H](C)O2)[C@H](C)[C@@H](O[C@@H]2O[C@H](C)C[C@H](N(C)C)[C@H]2O)[C@](C)(OC)C[C@@H](C)C(=O)[C@H](C)[C@@H](O)[C@]1(C)O` [CLARITHROMYCIN], the Activity entry in data set [1] is “inhibitor [+]”.
